In patent US20230111310A1, “CARBOXYLIC ACID DERIVATIVE-SUBSTITUTED IMINO ARYL COMPOUND, PREPARATION METHOD THEREFOR, HERBICIDAL COMPOSITION AND USE THEREOF” (Qingdao Kingagroot Chemical Compound Co., Ltd., priority 2020, published 2023):

What was measured:
Experiment in all cases: Weeding effect in post-emergence stage
Format in all cases: in vivo
Abutilon theophrasti = details: for Weeding effect in post-emergence stage, Abutilon theophrasti: level of fresh weight growth control rate; for Weeding effect in post-emergence stage, Abutilon theophrasti (level): fresh weight control rate level
Method in brief: (§1)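 Read-out is growth control rate, counted 3 weeks post-spray and averaged over three repeats. Greenhouse plants at the 2-3 leaf stage received spray-tower application at 500, 250, 125, 60, 30, 15 or 7.5 g/ha, with methyl oleate EC (1.5 liter/ha) and Tween 80 added.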

Alopecurus japonicus = details: for Weeding effect in post-emergence stage, Alopecurus japonicus: level of fresh weight growth control rate; for Weeding effect in post-emergence stage, Alopecurus japonicus (level): fresh weight control rate level
Method in brief: as §1

Digitaria sanguinalis = details: for Weeding effect in post-emergence stage, Digitaria sanguinalis: level of fresh weight growth control rate; for Weeding effect in post-emergence stage, Digitaria sanguinalis (level): fresh weight control rate level
Method in brief: as §1

Eleusine indica = details: for Weeding effect in post-emergence stage, Eleusine indica: level of fresh weight growth control rate; for Weeding effect in post-emergence stage, Eleusine indica (level): fresh weight control rate level
Method in brief: as §1

Setaria viridis = details: for Weeding effect in post-emergence stage, Setaria viridis: level of fresh weight growth control rate; for Weeding effect in post-emergence stage, Setaria viridis (level): fresh weight control rate level
Method in brief: as §1

Echinochloa crusgalli = details: for Weeding effect in post-emergence stage, Echinochloa crusgalli: level of fresh weight growth control rate; for Weeding effect in post-emergence stage, Echinochloa crusgalli (level): fresh weight control rate level
Method in brief: as §1

| SMILES | Weeding effect in post-emergence stage, Abutilon theophrasti (level) (Abutilon theophrasti; Dose 15 g/ha) | Weeding effect in post-emergence stage, Alopecurus japonicus (level) (Alopecurus japonicus; Dose 15 g/ha) | Weeding effect in post-emergence stage, Digitaria sanguinalis (level) (Digitaria sanguinalis; Dose 15 g/ha) | Weeding effect in post-emergence stage, Eleusine indica (level) (Eleusine indica; Dose 15 g/ha) | Weeding effect in post-emergence stage, Setaria viridis (level) (Setaria viridis; Dose 15 g/ha) | Weeding effect in post-emergence stage, Echinochloa crusgalli (level) (Echinochloa crusgalli; Dose 15 g/ha) | further results |
| --- | --- | --- | --- | --- | --- | --- | --- |
| COC(=O)C(C)O/N=C/c1cc(-n2c(=O)cc(C(F)(F)F)n(C)c2=O)c(F)cc1C(F)(F)F (stereo not drawn) [Compound 342] | – | – | – | – | – | – | Weeding effect in post-emergence stage, Abutilon theophrasti (Abutilon theophrasti; Dose 15 g/ha): 5 (Level 5: growth control rate is above 85%); Weeding effect in post-emergence stage, Alopecurus japonicus (Alopecurus japonicus; Dose 15 g/ha): 4 (Level 4: growth control rate is greater than or equal to 60% and less than 85%); Weeding effect in post-emergence stage, Digitaria sanguinalis (Digitaria sanguinalis; Dose 15 g/ha): 5 (Level 5: growth control rate is above 85%); Weeding effect in post-emergence stage, Eleusine indica (Eleusine indica; Dose 15 g/ha): 5 (Level 5: growth control rate is above 85%); Weeding effect in post-emergence stage, Setaria viridis (Setaria viridis; Dose 15 g/ha): 5 (Level 5: growth control rate is above 85%); Weeding effect in post-emergence stage, Echinochloa crusgalli (Echinochloa crusgalli; Dose 15 g/ha): 5 (Level 5: growth control rate is above 85%) |
| COC(=O)C(C)O/N=C/c1cc(-n2c(=O)cc(C(F)(F)F)n(C)c2=O)c(F)cc1C#N (stereo not drawn) [Compound 344] | – | – | – | – | – | – | Weeding effect in post-emergence stage, Abutilon theophrasti (Abutilon theophrasti; Dose 15 g/ha): 5 (Level 5: growth control rate is above 85%); Weeding effect in post-emergence stage, Alopecurus japonicus (Alopecurus japonicus; Dose 15 g/ha): 5 (Level 5: growth control rate is above 85%); Weeding effect in post-emergence stage, Digitaria sanguinalis (Digitaria sanguinalis; Dose 15 g/ha): 5 (Level 5: growth control rate is above 85%); Weeding effect in post-emergence stage, Eleusine indica (Eleusine indica; Dose 15 g/ha): 5 (Level 5: growth control rate is above 85%); Weeding effect in post-emergence stage, Setaria viridis (Setaria viridis; Dose 15 g/ha): 5 (Level 5: growth control rate is above 85%); Weeding effect in post-emergence stage, Echinochloa crusgalli (Echinochloa crusgalli; Dose 15 g/ha): 5 (Level 5: growth control rate is above 85%) |
| COC(=O)C(C)O/N=C/c1cc(-n2c(=O)cc(C(F)(F)F)n(C)c2=S)c(F)cc1Cl (stereo not drawn) [Compound 347] | – | – | – | – | – | – | Weeding effect in post-emergence stage, Abutilon theophrasti (Abutilon theophrasti; Dose 30 g/ha): 5 (Level 5: growth control rate is above 85%); Weeding effect in post-emergence stage, Alopecurus japonicus (Alopecurus japonicus; Dose 30 g/ha): 5 (Level 5: growth control rate is above 85%); Weeding effect in post-emergence stage, Digitaria sanguinalis (Digitaria sanguinalis; Dose 30 g/ha): 5 (Level 5: growth control rate is above 85%); Weeding effect in post-emergence stage, Eleusine indica (Eleusine indica; Dose 30 g/ha): 5 (Level 5: growth control rate is above 85%); Weeding effect in post-emergence stage, Setaria viridis (Setaria viridis; Dose 30 g/ha): 5 (Level 5: growth control rate is above 85%); Weeding effect in post-emergence stage, Echinochloa crusgalli (Echinochloa crusgalli; Dose 30 g/ha): 5 (Level 5: growth control rate is above 85%) |
| CCSC(=O)C(C)O/N=C/c1cc(-n2c(=O)cc(C(F)(F)F)n(C)c2=O)c(F)cc1Cl (stereo not drawn) [Compound 398] | 5 (Level 5: growth control rate is above 85%) | 5 (Level 5: growth control rate is above 85%) | 5 (Level 5: growth control rate is above 85%) | 5 (Level 5: growth control rate is above 85%) | 5 (Level 5: growth control rate is above 85%) | 5 (Level 5: growth control rate is above 85%) | – |
| CCCSC(=O)C(C)O/N=C/c1cc(-n2c(=O)cc(C(F)(F)F)n(C)c2=O)c(F)cc1Cl (stereo not drawn) [Compound 399] | 5 (Level 5: growth control rate is above 85%) | 5 (Level 5: growth control rate is above 85%) | 5 (Level 5: growth control rate is above 85%) | 5 (Level 5: growth control rate is above 85%) | 5 (Level 5: growth control rate is above 85%) | 5 (Level 5: growth control rate is above 85%) | – |
| CC(C)SC(=O)C(C)O/N=C/c1cc(-n2c(=O)cc(C(F)(F)F)n(C)c2=O)c(F)cc1Cl (stereo not drawn) [Compound 400] | 5 (Level 5: growth control rate is above 85%) | 4 (Level 4: growth control rate is greater than or equal to 60% and less than 85%) | 5 (Level 5: growth control rate is above 85%) | 5 (Level 5: growth control rate is above 85%) | 5 (Level 5: growth control rate is above 85%) | 5 (Level 5: growth control rate is above 85%) | – |
| COC(=O)CSC(=O)C(C)O/N=C/c1cc(-n2c(=O)cc(C(F)(F)F)n(C)c2=O)c(F)cc1Cl (stereo not drawn) [Compound 406] | 5 (Level 5: growth control rate is above 85%) | 4 (Level 4: growth control rate is greater than or equal to 60% and less than 85%) | 5 (Level 5: growth control rate is above 85%) | 5 (Level 5: growth control rate is above 85%) | 5 (Level 5: growth control rate is above 85%) | 5 (Level 5: growth control rate is above 85%) | – |
| CC(O/N=C/c1cc(-n2c(=O)cc(C(F)(F)F)n(C)c2=O)c(F)cc1Cl)C(=O)SCc1ccccc1 (stereo not drawn) [Compound 409] | – | – | – | – | – | – | Weeding effect in post-emergence stage, Abutilon theophrasti (level) (Abutilon theophrasti; Dose 30 g/ha): 5 (Level 5: growth control rate is above 85%); Weeding effect in post-emergence stage, Alopecurus japonicus (level) (Alopecurus japonicus; Dose 30 g/ha): 5 (Level 5: growth control rate is above 85%); Weeding effect in post-emergence stage, Digitaria sanguinalis (level) (Digitaria sanguinalis; Dose 30 g/ha): 5 (Level 5: growth control rate is above 85%); Weeding effect in post-emergence stage, Eleusine indica (level) (Eleusine indica; Dose 30 g/ha): 5 (Level 5: growth control rate is above 85%); Weeding effect in post-emergence stage, Setaria viridis (level) (Setaria viridis; Dose 30 g/ha): 5 (Level 5: growth control rate is above 85%); Weeding effect in post-emergence stage, Echinochloa crusgalli (level) (Echinochloa crusgalli; Dose 30 g/ha): 5 (Level 5: growth control rate is above 85%) |
| COC(=O)CCNC(=O)C(C)O/N=C/c1cc(-n2c(=O)cc(C(F)(F)F)n(C)c2=O)c(F)cc1Cl (stereo not drawn) [Compound 416] | 5 (Level 5: growth control rate is above 85%) | 4 (Level 4: growth control rate is greater than or equal to 60% and less than 85%) | 5 (Level 5: growth control rate is above 85%) | 5 (Level 5: growth control rate is above 85%) | 5 (Level 5: growth control rate is above 85%) | 5 (Level 5: growth control rate is above 85%) | – |
| CON(C)C(=O)C(C)O/N=C/c1cc(-n2c(=O)cc(C(F)(F)F)n(C)c2=O)c(F)cc1Cl (stereo not drawn) [Compound 419] | 5 (Level 5: growth control rate is above 85%) | 5 (Level 5: growth control rate is above 85%) | 5 (Level 5: growth control rate is above 85%) | 5 (Level 5: growth control rate is above 85%) | 5 (Level 5: growth control rate is above 85%) | 5 (Level 5: growth control rate is above 85%) | – |
| CC(O/N=C/c1cc(-n2c(=O)cc(C(F)(F)F)n(C)c2=O)c(F)cc1Cl)C(=O)NS(=O)(=O)N(C)C(C)C (stereo not drawn) [Compound 421] | 5 (Level 5: growth control rate is above 85%) | 5 (Level 5: growth control rate is above 85%) | 5 (Level 5: growth control rate is above 85%) | 5 (Level 5: growth control rate is above 85%) | 5 (Level 5: growth control rate is above 85%) | 5 (Level 5: growth control rate is above 85%) | – |
| Cc1cc(C)n(C(=O)C(C)O/N=C/c2cc(-n3c(=O)cc(C(F)(F)F)n(C)c3=O)c(F)cc2Cl)n1 (stereo not drawn) [Compound 424] | – | – | – | – | – | – | Weeding effect in post-emergence stage, Abutilon theophrasti (level) (Abutilon theophrasti; Dose 30 g/ha): 5 (Level 5: growth control rate is above 85%); Weeding effect in post-emergence stage, Alopecurus japonicus (level) (Alopecurus japonicus; Dose 30 g/ha): 5 (Level 5: growth control rate is above 85%); Weeding effect in post-emergence stage, Digitaria sanguinalis (level) (Digitaria sanguinalis; Dose 30 g/ha): 5 (Level 5: growth control rate is above 85%); Weeding effect in post-emergence stage, Eleusine indica (level) (Eleusine indica; Dose 30 g/ha): 5 (Level 5: growth control rate is above 85%); Weeding effect in post-emergence stage, Setaria viridis (level) (Setaria viridis; Dose 30 g/ha): 5 (Level 5: growth control rate is above 85%); Weeding effect in post-emergence stage, Echinochloa crusgalli (level) (Echinochloa crusgalli; Dose 30 g/ha): 5 (Level 5: growth control rate is above 85%) |
| CCn1c(C(F)(F)F)cc(=O)n(-c2cc(/C=N/OC(C)C(=O)OC)c(Cl)cc2F)c1=O (stereo not drawn) [Compound 426] | – | – | – | – | – | – | Weeding effect in post-emergence stage, Abutilon theophrasti (level) (Abutilon theophrasti; Dose 250 g/ha): 5 (Level 5: growth control rate is above 85%); Weeding effect in post-emergence stage, Alopecurus japonicus (level) (Alopecurus japonicus; Dose 250 g/ha): 5 (Level 5: growth control rate is above 85%); Weeding effect in post-emergence stage, Digitaria sanguinalis (level) (Digitaria sanguinalis; Dose 250 g/ha): 5 (Level 5: growth control rate is above 85%); Weeding effect in post-emergence stage, Eleusine indica (level) (Eleusine indica; Dose 250 g/ha): 5 (Level 5: growth control rate is above 85%); Weeding effect in post-emergence stage, Setaria viridis (level) (Setaria viridis; Dose 250 g/ha): 5 (Level 5: growth control rate is above 85%); Weeding effect in post-emergence stage, Echinochloa crusgalli (level) (Echinochloa crusgalli; Dose 250 g/ha): 5 (Level 5: growth control rate is above 85%) |
| COC(=O)C(C)O/N=C/c1cc(-n2c(=O)c(Cl)c(C(F)(F)F)n(C)c2=O)c(F)cc1Cl (stereo not drawn) [Compound 431] | 5 (Level 5: growth control rate is above 85%) | 5 (Level 5: growth control rate is above 85%) | 5 (Level 5: growth control rate is above 85%) | 5 (Level 5: growth control rate is above 85%) | 5 (Level 5: growth control rate is above 85%) | 5 (Level 5: growth control rate is above 85%) | – |
